Experimental data published in article PMC9413440, “An Iterative Approach Guides Discovery of the FabI Inhibitor Fabimycin, a Late-Stage Antibiotic Candidate with In Vivo Efficacy against Drug-Resistant Gram-Negative Infections” (ACS Central Science, 2022).
Converted amounts (≈) assume the structure as drawn. Where two headings read alike, the source gives them in different places.

Experiments:
[1] = system: Vancomycin-resistant Enterococcus (VRE); assay: MIC, vancomycin-resistant Enterococcus strains; type: cell-based
Procedure: (§1) II. Materials and Methods for Biological Experiments
(§2) S. aureus ATCC 29213 and E. coli MG1655 were obtained from the American Type Culture Collection (ATCC). E. coli BW25113 and E. coli JW5503 were obtained from the Keio Collection. AR-bank strains were obtained from the Centers for Disease Control and Prevention and FDA Antibiotic Resistance Isolate Bank.
(§3) Antimicrobial susceptibility tests
(§4) Susceptibility testing was performed in biological triplicate, unless noted otherwise, using the micro-dilution broth method as outlined by the Clinical and Laboratory Standards Institute. Bacteria were cultured with cation-adjusted Mueller Hinton broth (Sigma Aldrich, catalogue number: 90922). […]
NH3: m/z 391.2 → 171.0. Fabimycin: m/z 405.3 → 145.3. Power analysis was not used to determine the number of replicates. Error bars represent the standard error of the mean of three biological replicates. All compounds evaluated in biological assays were ≥95% pure.

[2] = system: K. pneumoniae clinical isolates (n=100); assay: MIC50/MIC90, clinical isolate panel; type: cell-based; conditions: Klebsiella pneumoniae; K. pneumoniae (n=100) clinical isolates
From the text: Figure 4 Antimicrobial activity of fabimycin against clinical isolates. (A) The susceptibility of clinical isolates (Gram-negative species and S. aureus) to fabimycin, Debio-1452-NH3, and Debio-1452. MICs performed in biological triplicate. (B) Further exploration of the breadth of fabimycin’s antibacterial activity against diverse clinical isolate panels of K. pneumoniae and A. baumannii, as compared to levofloxacin. MICs performed in biological duplicate.
as §1, §2, §3, §4
Error bars represent the standard error of the mean of three biological replicates. All compounds evaluated in biological assays were ≥95% pure.

[3] = Pharmacokinetic assessment in neutropenic A. baumannii-infected mice; type: in vivo, mouse; conditions: for Cmax / AUC(0-t) / clearance / half-life: single dose; for TimeHigh: time above the MIC of the infective strain (2 µg/mL)
From the text: Pharmacokinetic assessment
The protocol to assess fabimycin’s pharmacokinetic properties in A. baumanii-infected mice (strain: AR-0088) was approved by the IACUC at Pharmacology Discovery Services, Taiwan, Ltd. (protocol mumber: PK001-09212018). In this study, neutropenic female BALB/c mice 7-8 weeks in age from BioLASCO Taiwan (AAALAC-certified Charles River Licensee) weighing 18 ± 2 grams were used.10 All animals were specific pathogen free. Mice were rendered neutropenic via cyclophosphamide (CP) administration by two intraperitoneal (IP) injections following a standard method for mouse thigh infection models.11 The first CP dose, 150 mg/kg, was administered at four days before infection (Day –4); and the second, 100 mg/kg, at 24 h before infection (Day –1), prior to infection on Day 0.
To inoculate the mice, A. baumannii cultures were first generated by seeding brain heart infusion (BHI, 20 mL) with an aliquot (0.2 mL) of a single-used glycerol stock of A. baumannii AR-0088 stored at -80 °C and incubating at 35-37 °C with shaking (250 rpm) for 6 hours. An aliquot of this culture (1.0 mL) was used to seed fresh BHI media (99 mL) and this shaken (250 rpm) at 35-37 °C for 16 hours. Bacterial cells were harvested by centrifuging 20 mL of this outgrowth culture (3,500 x g) for 15 minutes and re-suspending in fresh cold phosphate buffered saline (PBS, 10 mL). The optical density at 620 nm was measured and used to guide dilutions. PBS suspensions were stored on ice for no more than 1 hour prior to animal inoculation. The bacterial count in the challenge organism suspension was enumerated by dilution plating on to nutrient gar plates followed by 20-24 hour incubation. The target inoculum is 1.0 * 10^5 CFU/mouse for the strain […]
Fabimycin was IV administered once followed by terminal blood sampling at 8 time points with cardiac puncture (5, 15, 30, 45, 60, 120, 240, and 480 minutes). Terminal blood collection from cardiac puncture was conducted under CO2 euthanasia. Blood, 0.3-0.4 mL, was drawn into tubes coated with K2EDTA, mixed gently and kept on ice and centrifuged at 12,000 × g for 5 minutes at 4°C within 1 hour of collection. The plasma was harvested and stored at -80 °C until further processing. Thigh tissues were aseptically harvested from the left thigh of the infected animals, weighed, and homogenized in sterile PBS (3 mL, pH 7.4) with a Polytron homogenizer. The thigh homogenate was collected and stored at -80 °C until further processing.
For LC-MS/MS sample processing a 20 µL aliquot of each plasma and thigh sample was transferred to 96 well plate. A 300 µL aliquot of 0.01 ng/µL internal standard (IS), oxybutynin, in MeOH/FA=95/5 was added to each tube except for the double blank and carryover controls. A 300 μL aliquot of MeOH/FA=95/5, without oxybutynin, was added to the double blank and carryover assay wells. The equilibrated mixture was vortexed for 1 min and then centrifuged at 4,000 rpm for 5 min at 20 °C to precipitate protein. After centrifugation, 50 µL of the supernatant was transferred to a new well of the 96 well plate and 500 μL H2O/FA=100/0.2 added for LC-MS/MS analysis. Plasma and thigh samples from treatment groups and the calibration curve samples were processed on the same test occasion using the same procedure.
The calibration curve samples were generated by spiking aliquots of drug-free plasma or thigh homogenates with the test article dilution. The quality control (QC) samples, QH (high), QM (medium) and QL (low) were each assayed in duplicate. The PK parameters for the IV doses were obtained from the non-compartmental analysis (NCA) of the plasma and thigh homogenate data using WinNonlin (Phoenix® Build 8.3.1.5014).
LC-MS/MS runs were conducted with a SCIEX Triple Quad™ 5500+ mass sp ectrometer. Method development was conducted to determine appropriate conditions for LC-MS/MS analysis of fabimycin. A titration of a stock solution was performed to correlate peak areas and the corresponding concentration. […]

[4] = female, BALB/c, mouse, plasma, 75 mg/kg, IV
[5] = female, BALB/c, mouse, plasma, 100 mg/kg, IV
[6] = female, BALB/c, mouse, thigh, 75 mg/kg, IV
[7] = female, BALB/c, mouse, thigh, 100 mg/kg, IV

Cc1c(CN(C)C(=O)/C=C/c2cnc3c(c2)CC[C@H](N)C(=O)N3)oc2ccccc12 [fabimycin]
MIC ([1]; ATCC 1593 / VRE): 128 µg/mL (≈ 316 µM)
MIC ([1]; ATCC 1768 / VRE): > 128 µg/mL
MIC ([1]; ATCC 2059 / VRE, VRE ATCC 2059, read-out: MIC): 64 µg/mL (≈ 158 µM)
MIC ([1]; ATCC 2431 / VRE): > 128 µg/mL
MIC ([1]; ATCC 2574 / VRE): > 128 µg/mL
MIC ([1]; ATCC 3053 / VRE, VRE ATCC 3053, read-out: MIC): 64 µg/mL (≈ 158 µM)
MIC ([1]; ATCC 3183 / VRE, VRE ATCC 3183, read-out: MIC): 64 µg/mL (≈ 158 µM)
MIC ([1]; ATCC 3190 / VRE): > 128 µg/mL
MIC ([1]; ATCC 3191 / VRE): 128 µg/mL (≈ 316 µM)
MIC ([1]; ATCC 29212 / VRE): 128 µg/mL (≈ 316 µM)
MIC50 [2]: 1 µg/mL (≈ 2.47 µM)
MIC90 [2]: 4 µg/mL (≈ 9.89 µM)
Cmax ([3]; female, BALB/c, mouse, plasma, iv, 75 mg/kg, plasma, 75 mg/kg, read-out: Cmax): 34600 ng/mL
Cmax ([3]; female, BALB/c, mouse, plasma, iv, 100 mg/kg, plasma, 100 mg/kg, read-out: Cmax): 47300 ng/mL
Cmax ([3]; female, BALB/c, mouse, thigh, iv, 75 mg/kg, thigh, 75 mg/kg, read-out: Cmax): 33000 ng/g
Cmax ([3]; female, BALB/c, mouse, thigh, iv, 100 mg/kg, thigh, 100 mg/kg, read-out: Cmax): 60200 ng/g
AUC(0-t) [3, 4]: 45400 ng·h/mL
clearance [3, 4]: 26.9 mL/min/kg
half-life [3, 4]: 1.4 h
AUC(0-t) [3, 5]: 69800 ng·h/mL
clearance [3, 5]: 23.5 mL/min/kg
half-life [3, 5]: 1.4 h
AUC(0-t) [3, 6]: 65200 ng·h/mL
clearance [3, 6]: 18.9 mL/min/kg
half-life [3, 6]: 1.39 h
AUC(0-t) [3, 7]: 112000 ng·h/mL
clearance [3, 7]: 14.7 mL/min/kg
half-life [3, 7]: 1.24 h
TimeHigh ([3]; plasma, 75 mg/kg, IV): 5.70 h
Cmax ([3]; plasma, 100 mg/kg, IV): 47000 ng/mL
TimeHigh ([3]; plasma, 100 mg/kg, IV): 6.67 h
TimeHigh ([3]; thigh, 75 mg/kg, IV): over 6 h
TimeHigh ([3]; thigh, 75 mg/kg, IV, listed as Fabimycin): 6.22 h
TimeHigh ([3]; thigh, 100 mg/kg, IV): 7.19 h
